The values below come from patent US11578040B2, “[5]Helicene derivatives as molecular reporters for diagnostic applications and methods of synthesis therefor” (NATIONAL SCIENCE AND TECHNOLOGY DEVELOPMENT AGENCY, priority 2016, dated 2023).

The structures appear in SMILES notation.

For one data set, the system named is antigen. Briefly: Testing of binding reactivity of antibody after conjugation with molecular reporter on 96-well plates (HRP-labeled anti-mouse antibody, signal at 450 nm). The note with it: 2 μg/mL conjugated antibody, antigen-coated 96-well plate. The method, then:
The binding reactivity of antibody conjugating molecular reporter (compound 6, compound 8, and compound 14) to antigen could be tested with an immobilization of antigen on wells of 96-well plates. The molecular reporter conjugated antibody was added into the wells. The antibody would bind to the antigen coating wells. Horseradish peroxidase labeled antibody specific to mouse antibody was used as a reporter molecule for reporting binding reactivity. The results of molecular reporter conjugated antibody were compared with results of antibody without molecular reporter conjugation.
The method for testing binding reactivity of molecular reporter conjugated antibody and antigen in 96-well plate consists of the following steps. • a) Prepare 2 μg/mL of antigen in carbonate buffer containing 50 mM carbonate, pH 9.6, and immobilize antigen (100 μL/well) in 96-well plate. • b) Incubate 96-well plate in step 1 at 4° C. for 12-16 hours. • c) Block non-specific binding with 300 μL/well of 2% bovine serum albumin in phosphate-buffered saline containing 0.05% Tween (PBST), and incubate at room temperature for 1 hour. • d) Wash 96-well plates in step 3 with 300 μL/well of PBST for 3 times. • e) Add 100 μL/ well of 2 μg/mL of antibody conjugating molecular reporter (compound 6, compound 8, and compound 14), and incubate at room temperature for 1 hour. • f) Wash 96-well plates in step 5 with 300 μL/well of PBST for 3 times. • g) Add 100 μL/well of horseradish peroxidase labeled antibody specific to mouse antibody (dilution at 1:10,000), and incubate at room temperature for 1 hour. • h) Wash 96-well plates in step 7 with 300 μL/well of PBST for 3 times. • i) Add 100 μL/well of substrate solution for horseradish peroxidase which is 3,3′,5,5′-Tetramethylbenzidine, and incubate at room temperature for 30 minutes. • j) Add 50 μL/well of sulfuric acid (H2SO4) for stop reaction. • k) Measure signals at 450 nm.

As for `N#Cc1c(C#N)c2ccc3cc(OCCCCCC(=O)O)ccc3c2c2c1ccc1cc(OCCCCCC(=O)O)ccc12` [compound 6, 6,6′-((3,4-dicyanodibenzo[c,g]phenanthrene-8,13-diyl)bis(oxy))dihexanoic acid], in the data set with antigen, the “binding of antibody conjugating molecular reporter to antigen (FIG. 5)” value is given as “antibody could bind to antigen” and the “effect of molecular reporter on binding reactivity of antibody compared with antibody without any conjugation (FIG. 5)” value was “did not affect the binding reactivity of antibody”.
`N#Cc1c(C#N)c2c(c3c1CCc1cc(OCCCCCC=O)ccc1-3)-c1ccc(OCCCCCC=O)cc1CC2` [compound 8, 8,13-bis((6-oxohexyl)oxy)-1,2,5,6-tetrahydrodibenzo[c,g]phenanthrene-3,4-dicarbonitrile] gave a melting point of 135 to 139 °C. For the same compound, in the data set on antigen, the “binding of antibody conjugating molecular reporter to antigen (FIG. 5)” value was “antibody could bind to antigen” and the “effect of molecular reporter on binding reactivity of antibody compared with antibody without any conjugation (FIG. 5)” value is recorded as “did not affect the binding reactivity of antibody”.

Usually melting point stands for the temperature of the solid-liquid transition.
